Assay results taken from patent US11096923B2, “Pharmaceutical composition containing polymyxin B/trimethoprim based therapeutics” (University of Rochester, priority 2016, dated 2021).
Where “and” joins values, the source holds several entries; their conditions need not be identical. Equal values may be shown once.

Experiments:
P. aeruginosa = assay: Fractional inhibitory concentration, checkerboard MIC; type: cell-based, Pseudomonas aeruginosa; settings: for MIC in combination: PT combined with tobramycin; for MIC: Pseudomonas aeruginosa
S. aureus = assay: as above; type: cell-based, Staphylococcus aureus; settings: for MIC in combination: PT combined with tobramycin; for MIC: Staphylococcus aureus
S. aureus UAMS-1 = assay: Selleck library screen in presence of sub-inhibitory polymyxin B/trimethoprim; type: cell-based, Staphylococcus aureus; set-up: key: Growth (+); no growth (−)
P. aeruginosa PAO1 = assay: as above; type: cell-based, Pseudomonas aeruginosa; set-up: key: Growth (+); no growth (−)
[1] = tested on: P. aeruginosa strain PA01 biofilms; assay: Biofilm susceptibility; type: cell-based, Pseudomonas aeruginosa; settings: established PA01 biofilm, 24 hrs treatment, 32×MIC
From the text: Bacterial strains used in these studies include the conventional laboratory strains Pseudomonas aeruginosa PA01 and Staphylococcus aureus UAMS-1, both of which are antibiotic susceptible and capable of forming robust biofilms. See […], Thomas J R, Nelson […]. Role of the accessory gene regulator (agr) in pathogenesis of staphylococcal osteomyelitis. Infection and immunity 1995; 63:3373-3380. Seven clinical keratitis isolates of Pseudomonas aeruginosa, were collected from the Flaum Eye Institute, Rochester N.Y. and 25 clinical isolates of Staphylococcus aureus from geographically distinct regions of the country where purchased from International Health Management Associates (IHMA; Schaumburg, Ill.). […] After 24 hrs the remaining media and non-adherent cells were removed, biofilms were suspended in 0.8% NaCl and plated to quantify surviving bacteria. […] Biofilms were treated in increasing increments ranging from 0 to 64×MIC.

[2] = tested on: planktonic P. aeruginosa cells; assay: Antimicrobial kill curves; type: cell-based, Pseudomonas aeruginosa; settings: 2× MIC
Description: Overnight cultures of the indicated organism were used to inoculate (1:100 dilution) 100 ml of fresh media and grown to mid-exponential phase. […] Aliquots were taken at 1, 2, 3, 4, and 24 hours, serial diluted and plated for colony forming units.

With NC[C@H]1O[C@H](O[C@H]2[C@H](O)[C@@H](O[C@H]3O[C@H](CO)[C@@H](O)[C@H](N)[C@H]3O)[C@H](N)C[C@@H]2N)[C@H](N)C[C@@H]1O [Tobramycin, tobramycin] the MIC in combination (P. aeruginosa; P. aeruginosa PAO1) was 0.12 µg/mL and 0.24 µg/mL, the MIC in combination (P. aeruginosa; P. aeruginosa RW01) was 0.12 µg/mL and the MIC in combination (P. aeruginosa; P. aeruginosa RW02) was 0.06 µg/mL. For the same compound, the MIC in combination (P. aeruginosa; P. aeruginosa RW03) was 0.12 µg/mL, the MIC in combination (P. aeruginosa; P. aeruginosa RW04) was 0.12 µg/mL and the MIC in combination (P. aeruginosa; P. aeruginosa RW05) was 0.24 µg/mL. It also gave an MIC in combination (P. aeruginosa; P. aeruginosa RW06) of 0.12 µg/mL, an MIC in combination (P. aeruginosa; P. aeruginosa RW07) of 0.12 µg/mL and an MIC (P. aeruginosa; P. aeruginosa RW01) of 0.24 µg/mL. For the same compound, the MIC (P. aeruginosa; P. aeruginosa RW02) was 0.24 µg/mL, the MIC (P. aeruginosa; P. aeruginosa RW03) was 0.24 µg/mL and the MIC (P. aeruginosa; P. aeruginosa RW04) was 0.48 µg/mL. It also gave an MIC (P. aeruginosa; P. aeruginosa RW05) of 0.48 µg/mL, an MIC (P. aeruginosa; P. aeruginosa RW06) of 0.24 µg/mL and an MIC (P. aeruginosa; P. aeruginosa RW07) of 0.24 µg/mL. For the same compound, the MIC (P. aeruginosa; PAO1, P. aeruginosa PAO1) was 0.48 µg/mL, the MIC in combination (S. aureus; S. aureus 1071788) was 0.48 µg/mL and the MIC in combination (S. aureus; S. aureus 1094094) was 3.9 µg/mL. For the same compound, the MIC in combination (S. aureus; S. aureus 1094140) was 1.9 µg/mL, the MIC in combination (S. aureus; S. aureus 1094147) was 3.9 µg/mL and the MIC in combination (S. aureus; S. aureus 1094166) was 0.48 µg/mL. The MIC in combination (S. aureus; S. aureus 1094178) was 7.8 µg/mL, the MIC in combination (S. aureus; S. aureus 1097612) was 3.9 µg/mL and the MIC in combination (S. aureus; S. aureus 1097630) was 3.9 µg/mL. It also gave an MIC in combination (S. aureus; S. aureus 1101442) of 0.97 µg/mL, an MIC in combination (S. aureus; S. aureus 1103430) of 0.48 µg/mL and an MIC in combination (S. aureus; S. aureus 1110936) of 0.48 µg/mL. It also gave an MIC in combination (S. aureus; S. aureus 1111063) of 3.9 µg/mL, an MIC in combination (S. aureus; S. aureus 1122181) of 3.9 µg/mL and an MIC in combination (S. aureus; S. aureus 1122187) of 0.48 µg/mL. The MIC in combination (S. aureus; S. aureus 1122190) was 3.9 µg/mL, the MIC in combination (S. aureus; S. aureus 1122197) was 0.48 µg/mL and the MIC in combination (S. aureus; S. aureus 1125120) was 15.6 µg/mL. It also gave an MIC in combination (S. aureus; S. aureus 1132822) of 0.97 µg/mL, an MIC in combination (S. aureus; S. aureus 1142776) of 0.48 µg/mL and an MIC in combination (S. aureus; S. aureus 1144105) of 0.48 µg/mL. For the same compound, the MIC in combination (S. aureus; S. aureus UAMS-1) was 0.48 µg/mL, the MIC (S. aureus; S. aureus 1071788) was 0.97 µg/mL and the MIC (S. aureus; S. aureus 1094094) was 3.9 µg/mL. For the same compound, the MIC (S. aureus; S. aureus 1094140) was 7.8 µg/mL, the MIC (S. aureus; S. aureus 1094147) was 7.8 µg/mL and the MIC (S. aureus; S. aureus 1094166) was 1.9 µg/mL. It also gave an MIC (S. aureus; S. aureus 1094178) of 7.8 µg/mL, an MIC (S. aureus; S. aureus 1097612) of 15.6 µg/mL and an MIC (S. aureus; S. aureus 1097630) of 7.8 µg/mL. The MIC (S. aureus; S. aureus 1101442) was 3.9 µg/mL, the MIC (S. aureus; S. aureus 1103430) was 1.9 µg/mL and the MIC (S. aureus; S. aureus 1110936) was 1.9 µg/mL. For the same compound, the MIC (S. aureus; S. aureus 1111063) was 7.8 µg/mL, the MIC (S. aureus; S. aureus 1122181) was 7.8 µg/mL and the MIC (S. aureus; S. aureus 1122187) was 1.9 µg/mL. For the same compound, the MIC (S. aureus; S. aureus 1122190) was 7.8 µg/mL, the MIC (S. aureus; S. aureus 1122197) was 1.9 µg/mL and the MIC (S. aureus; S. aureus 1125120) was 15.6 µg/mL. For the same compound, the MIC (S. aureus; S. aureus 1132822) was 3.9 µg/mL, the MIC (S. aureus; S. aureus 1142776) was 1.9 µg/mL and the MIC (S. aureus; S. aureus 1144105) was 1.9 µg/mL. For the same compound, the MIC (S. aureus; S. aureus UAMS-1) was 1.9 µg/mL, the “S. aureus growth, 5 μM” value (S. aureus UAMS-1; drug 5 μM in presence of 1.2 μg ml^−1 polymyxin B/trimethoprim) was “+” and the “S. aureus growth, 50 μM” value (S. aureus UAMS-1; drug 50 μM in presence of 1.2 μg ml^−1 polymyxin B/trimethoprim) was “−”. The “P. aeruginosa growth, 5 μM” value (P. aeruginosa PAO1; drug 5 μM in presence of 0.2 μg ml^−1 polymyxin B/trimethoprim) was “−”, the “P. aeruginosa growth, 50 μM” value (P. aeruginosa PAO1; drug 50 μM in presence of 0.2 μg ml^−1 polymyxin B/trimethoprim) was “−” and the “reduction in biofilm-associated CFU” value [1] was 5 log. For the same compound, the “reduction in CFU at hour 4” value ([2]; 4 hours post-treatment) was 2 log and the “reduction in CFU at 24 hr” value ([2]; 24 hours) was 7 log.
